For this experiment, the target named is T1, SHP2 full-length protein (Homo sapiens, UniProt Q06124).
T1 construct: purchased BPS Bioscience #79330
T1 sequence (Q06124 1-593): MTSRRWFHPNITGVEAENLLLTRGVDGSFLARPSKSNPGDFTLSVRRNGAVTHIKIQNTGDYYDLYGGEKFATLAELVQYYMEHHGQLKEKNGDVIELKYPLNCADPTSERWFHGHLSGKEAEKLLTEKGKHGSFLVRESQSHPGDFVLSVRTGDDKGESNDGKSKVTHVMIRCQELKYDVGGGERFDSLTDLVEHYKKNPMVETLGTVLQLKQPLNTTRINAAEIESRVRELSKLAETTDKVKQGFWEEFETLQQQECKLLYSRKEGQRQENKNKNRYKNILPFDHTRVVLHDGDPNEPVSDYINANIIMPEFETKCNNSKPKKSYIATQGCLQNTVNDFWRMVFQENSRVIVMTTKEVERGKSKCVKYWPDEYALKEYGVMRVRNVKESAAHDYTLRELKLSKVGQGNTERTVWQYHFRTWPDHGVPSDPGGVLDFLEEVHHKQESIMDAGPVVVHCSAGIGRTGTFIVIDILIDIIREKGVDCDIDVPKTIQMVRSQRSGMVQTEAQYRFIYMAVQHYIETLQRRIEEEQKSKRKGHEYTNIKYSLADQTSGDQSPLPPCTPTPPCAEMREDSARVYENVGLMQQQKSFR
The experiment is described as follows: SHP2 allosteric inhibition experiment (Homogeneous Full Length SHP-2 Assay Kit). The format is biochemical. Particulars: full-length SHP2 0.06 nM with SHP-2 activating peptide; ten-point, 1 μM to 0.05 nM; read-out: IC50 Values of Compounds Inhibiting SHP2. An excerpt: The following further describes and explains the present invention in combination with test examples, but these examples are not meant to limit the scope of the present invention. SHP2 allosteric inhibition experiment
The purpose of this test is to measure the ability of the compounds to inhibit the allosteric activity of the SHP2 full-length protein. Experimental equipment: a centrifuge (5810R) is purchased from Eppendorf Company; pipettes are purchased from Eppendorf Company and Rainin Company, and microplate readers are purchased from BioTek Company of the United States, SynergyH1 multimode microplate reader.
Experimental method: Homogeneous Full Length SHP-2 Assay Kit (BPS Bioscience, #79330) is used to detect SHP2 activity in vitro. First, add 18 μL of Master Mix to 96-well low-adsorption microplate (NUNC, #267342), that is, 0.5 μL of SHP-2 activating Peptide and 5 mM DTT are included in the reaction buffer with a final concentration of 1×. After centrifugation, add 5 μL of the compound to be tested in DMSO (final DMSO content is 1% (V/V) in each well: dissolve the compound to be tested in DMSO to 1 mM, conduct triple dilution with a total of 10 concentration levels ranging from 1 μM to 0.05 nM in the reaction buffer. After diluting SHP2 in 1× reaction buffer to a final concentration of 0.06 nM, add it to the reaction microwell plate, 2 μL per well. Set a full activity control ([…]) and a full inhibition control (without SHP-2) on the reaction plate, and incubate the reaction mixture at room temperature for 60 minutes after centrifugation.
After incubation, add 25 μL of Substrate solution to each well, containing Substrate with a final concentration of 10 μM and DTT with a final concentration of 5 mM, and after centrifugation, continue to incubate at room temperature for 30 minutes. After the reaction, set the excitation wavelength at 340 nm, the emission wavelength at 455 nm, and the gain value to 75 on the Synergy H1 microplate reader (Biotek) for reading.
Take the full activity control and full inhibition control as the values of Max and Min, and calculate the percentage inhibition rate of the wells treated with the compound based on the positive control wells (DMSO control wells) and negative control wells (no kinase added) on the reaction plate, (inhibition rate percentage=100−[(test compound−Min average value)/(Max average value−Min average value)]×100%. IC50 values of test compounds are calculated by fitting percentage of inhibition and ten-point concentration data to a 4-parameter nonlinear logic formula using GraphPad prism.
For `CC(C)n1ccc(-c2cccc(Sc3ncc4nc(N5CCC6(CC5)CO[C@@H](C)[C@H]6N)cnc4n3)c2Cl)n1` [Compound 69, (3S,4S)-8-(2-((2-chloro-3-(1-isopropyl-1H-pyrazole-3-yl)phenyl)mercapto)pteridine-6-yl)-3-methyl-2-oxa-8-azaspiro[4.5]decane-4-amine], the IC50 is at most 0.01 µM.

For the compound `N[C@@H]1c2cnccc2CC12CCN(c1cnc3c(=O)n(-c4cccc(Cl)c4Cl)c(=O)[nH]c3n1)CC2` [Compound 16, (S)-7-(7-Amino-5,7-dihydrospiro [cyclopenta[c]pyridine-6,4′-piperidine]-1′-yl)-3-(2,3-dichlorophenyl)pteridine-2,4(1H,3H)-dione], the IC50 lay in the range of 0.01 to 0.1 µM.

Regarding `N[C@@H]1c2ccncc2CC12CCN(c1ccc3c(=O)n(-c4ccnc(NC5CC5)c4Cl)c(=O)[nH]c3n1)CC2` [Compound 28], the IC50 is at most 0.01 µM.

As to `C[C@@H]1OCC2(CCN(c3ncc4nc(Sc5cccc(-c6cnccn6)c5Cl)cnc4n3)CC2)[C@@H]1N` [Compound 73, (3S,4S)-8-(6-((2-chloro-3-(pyrazine-2-yl)phenyl)mercapto)pteridine-2-yl)-3-methyl-2-oxa-8-azaspiro[4.5]decane-4-amine], the IC50 is at most 0.01 µM.

As for `C[C@@H]1OCC2(CCN(c3cnc4nc(Sc5cccc(-c6ccn(C)n6)c5Cl)ccc4n3)CC2)[C@@H]1N` [Compound 92, (3S,4S)-8-(6-((2-chloro-3-(1-methyl-1H-pyrazole-3-yl)phenyl)mercapto)pyridinyl[2,3-b]pyrazine-2-yl)-3-methyl-2-oxa-8-azaspiro[4.5]decane-4-amine], the IC50 is at most 0.01 µM.

With `C[C@@H]1OCC2(CCN(c3ccc4nc(Sc5cccc(-c6cnccn6)c5Cl)ncc4n3)CC2)[C@@H]1N` [Compound 74, (3S,4S)-8-(2-((2-chloro-3-(pyrazine-2-yl)phenyl)mercapto)pyridinyl[3,2-d]pyrimidine-6-yl)-3-methyl-2-oxa-8-azaspiro[4.5]decane-4-amine], the IC50 was at most 0.01 µM.

For `C[C@@H]1OCC2(CCN(c3ncc(Sc4cccc(Nc5cccnc5)c4Cl)cn3)CC2)[C@@H]1N` [Compound 119, (3S,4S)-8-(5-((2-chloro-3-(pyridine-3-amino)phenyl)mercapto)pyrimidine-2-yl)-3-me thyl-2-oxa-8-azaspiro[4.5]decane-4-amine], the 50% inhibitory concentration (IC50) is at most 0.01 µM.

For the compound `C[C@@H]1OCC2(CCN(c3ncc4nc(Sc5cccc(-c6ccn(C)n6)c5Cl)ccc4n3)CC2)[C@@H]1N` [Compound 90, (3S,4S)-8-(6-((2-chloro-3-(1-methyl-1H-pyrazole-3-yl)phenyl)mercapto)pyridinyl[3,2-b]pyrimidine-2-yl)-3-methyl-2-oxa-8-azaspiro[4.5]decane-4-amine], the IC50 is at most 0.01 µM.

For the compound `C[C@@H]1OCC2(CCN(c3cnc4c(=O)n(-c5ccnc(N)c5Cl)c(=O)[nH]c4n3)CC2)[C@@H]1N` [Compound 17, 3-(2-amino-3-chloropyridine-4-yl)-7-((3S,4S)-4-amino-3-methyl-2-oxa-8-azaspiro[4.5]decane-8-yl)pteridine-2,4(1H,3H)-dione], the half-maximal inhibitory concentration (IC50) is at most 0.01 µM.

In the case of `NC1c2ncccc2CC12CCN(c1ccc3c(=O)n(-c4cccc(Cl)c4Cl)c(=O)[nH]c3c1)CC2` (stereo in doubt) [Compound 8, (S)-7-(7-Amino-5,7-dihydrospiro[cyclopenta[b]pyridine-6,4′-piperidine]-1′-yl)-3-(2,3-dichlorophenyl)quinazoline-2,4(1H,3H)-dione], the IC50 is at most 0.01 µM.

With `C[C@@H]1OCC2(CCN(c3cnc4nc(Sc5cccc(-c6cccnc6)c5Cl)ncc4n3)CC2)[C@@H]1N` [Compound 78], the IC50 was at most 0.01 µM.

For the compound `C[C@@H]1OCC2(CCN(c3cnc4c(=O)n(-c5ccnc(NC6CC6)c5Cl)c(=O)[nH]c4n3)CC2)[C@@H]1N` [Compound 23], the IC50 is at most 0.01 µM.

As to `Nc1nccc(-n2c(=O)[nH]c3nc(N4CCC5(CC4)Cc4ccccc4[C@H]5N)cnc3c2=O)c1Cl` [Compound 18, (S)-7-(1-amino-1,3-dihydrospiro[indene-2,4′-piperidine]-1′-yl)-3-(2-amino-3-chloropyridine-4-yl)pteridine-2,4(1H,3H)-dione], the IC50 was at most 0.01 µM.

Consider `C[C@@H]1OCC2(CCN(c3ccc4nc(Sc5cccc(-c6ccncn6)c5Cl)ncc4n3)CC2)[C@@H]1N` [Compound 77, (3S,4S)-8-(2-((2-chloro-3-(pyrimidine-4-yl)phenyl)mercapto)pyridinyl[3,2-d]pyrimidine-6-yl)-3-methyl-2-oxa-8-azaspiro[4.5]decane-4-amine], for which the IC50 is at most 0.01 µM.

Consider `C[C@@H]1OCC2(CCN(c3ncc(Sc4cccc(-c5ccncn5)c4Cl)cn3)CC2)[C@@H]1N` [Compound 118, (3S,4S)-8-(5-((2-chloro-3-(pyrimidine-4-yl)phenyl)mercapto)pyrimidine-2-yl)-3-methyl-2-oxa-8-azaspiro[4.5]decane-4-amine], for which the IC50 is at most 0.01 µM.

Take `C[C@@H]1OCC2(CCN(c3ccc4nc(Sc5cccc(NC(=O)c6c(O)nc7n(c6=O)CCCC7)c5Cl)cnc4n3)CC2)[C@@H]1N` [Compound 97, N-(3-((6-((3S,4S)-4-amino-3-methyl-2-oxa-8-azaspiro[4.5]decane-8-yl)pyridinyl[2,3-b]pyrazine-2-yl)mercapto)-2-chlorophenyl)-2-hydroxy-4-oxo-6,7,8,9-tetrahydro-4H-p yridinyl[1,2-a]pyrimidine-3-carboxamide]: the IC50 is at most 0.01 µM.

On to `C[C@@H]1OCC2(CCN(c3cnc(Sc4cccc(Nc5cccnc5)c4Cl)nc3)CC2)[C@@H]1N` [Compound 107, (3S,4S)-8-(2-((2-chloro-3-(pyridine-3-amino)phenyl)mercapto)pyrimidine-5-yl)-3-me thyl-2-oxa-8-azaspiro[4.5]decane-4-amine], for which the IC50 is 0.01 to 0.1 µM.

Consider `C[C@@H]1OCC2(CCN(c3ncc(Sc4cccc(-c5ccn(C)n5)c4Cl)cn3)CC2)[C@@H]1N` [Compound 111, (3S,4S)-8-(5-((2-chloro-3-(1-methyl-1H-pyrazole-3-yl)phenyl)mercapto)pyrimidine-2-yl)-3-methyl-2-oxa-8-azaspiro[4.5]decane-4-amine], for which the IC50 fell in the range of 0.01 to 0.1 µM.

Consider `Nc1nccc(-n2c(=O)[nH]c3cc(N4CCC5(CC4)COCC5N)ccc3c2=O)c1Cl` (stereo in doubt) [Compound 3, (S)-3-(2-amino-3-chloropyridine-4-yl)-7-(4-amino-2-oxa-8-azaspiro[4.5]decane-8-yl)q uinazoline-2,4(1H,3H)-dione], for which the IC50 was at most 0.01 µM.

Take `C[C@@H]1OCC2(CCN(c3ccc4c(=O)n(-c5cccc(Cl)c5Cl)c(=O)[nH]c4n3)CC2)[C@@H]1N` [Compound 25, 7-((3S,4S)-4-amino-3-methyl-2-oxa-8-azaspiro[4.5]decane-8-yl)-3-(2,3-dichlorophenyl)pyridinyl[2,3-d]pyrimidine-2,4(1H,3H)-dione]: the IC50 is at most 0.01 µM.

As for `C[C@@H]1OCC2(CCN(c3ncc(Sc4cccc(NC(=O)c5ccccn5)c4Cl)cn3)CC2)[C@@H]1N` [Compound 125, N-(3-((2-((3S,4S)-4-amino-3-methyl-2-oxa-8-azaspiro[4.5]decane-8-yl)pyrimidine-5-yl)mercapto)-2-chlorophenyl)pyridine-2-carboxamide], the IC50 was at most 0.01 µM.

These data come from patent US20240270759A1, “Preparation of SHP2 phosphatase inhibitors and its applications” (Ya Therapeutics Inc, priority 2021, published 2024).
